The target of one assay is Estrogen receptor (Homo sapiens, UniProt P03372). Put plainly: ERα coactivator recruitment enhancers – biochemical, TR-FRET, ERα LBD, dose response (AID 737).
Assay [1] has as its target C-C chemokine receptor type 6 (Homo sapiens, UniProt P51684). Briefly: antagonism of CCR6 beta-arrestin recruitment – cell-based, luminescent beta-arrestin readout, dose response (AID 504728). Type of assay: functional. In general terms: Recruitment of arrestin is a read-out of receptor activation apart from second messengers.
For another assay, the target named is Beta-galactosidase (Escherichia coli, UniProt Q8VNN2). Briefly: detection-enzyme interference by beta-gal modulators – biochemical, E. coli enzyme, set 3, artefact control for CCR6 antagonist project, dose response (AID 504712). Format: functional.
Beta-galactosidase, sequence (Q8VNN2 whole entry): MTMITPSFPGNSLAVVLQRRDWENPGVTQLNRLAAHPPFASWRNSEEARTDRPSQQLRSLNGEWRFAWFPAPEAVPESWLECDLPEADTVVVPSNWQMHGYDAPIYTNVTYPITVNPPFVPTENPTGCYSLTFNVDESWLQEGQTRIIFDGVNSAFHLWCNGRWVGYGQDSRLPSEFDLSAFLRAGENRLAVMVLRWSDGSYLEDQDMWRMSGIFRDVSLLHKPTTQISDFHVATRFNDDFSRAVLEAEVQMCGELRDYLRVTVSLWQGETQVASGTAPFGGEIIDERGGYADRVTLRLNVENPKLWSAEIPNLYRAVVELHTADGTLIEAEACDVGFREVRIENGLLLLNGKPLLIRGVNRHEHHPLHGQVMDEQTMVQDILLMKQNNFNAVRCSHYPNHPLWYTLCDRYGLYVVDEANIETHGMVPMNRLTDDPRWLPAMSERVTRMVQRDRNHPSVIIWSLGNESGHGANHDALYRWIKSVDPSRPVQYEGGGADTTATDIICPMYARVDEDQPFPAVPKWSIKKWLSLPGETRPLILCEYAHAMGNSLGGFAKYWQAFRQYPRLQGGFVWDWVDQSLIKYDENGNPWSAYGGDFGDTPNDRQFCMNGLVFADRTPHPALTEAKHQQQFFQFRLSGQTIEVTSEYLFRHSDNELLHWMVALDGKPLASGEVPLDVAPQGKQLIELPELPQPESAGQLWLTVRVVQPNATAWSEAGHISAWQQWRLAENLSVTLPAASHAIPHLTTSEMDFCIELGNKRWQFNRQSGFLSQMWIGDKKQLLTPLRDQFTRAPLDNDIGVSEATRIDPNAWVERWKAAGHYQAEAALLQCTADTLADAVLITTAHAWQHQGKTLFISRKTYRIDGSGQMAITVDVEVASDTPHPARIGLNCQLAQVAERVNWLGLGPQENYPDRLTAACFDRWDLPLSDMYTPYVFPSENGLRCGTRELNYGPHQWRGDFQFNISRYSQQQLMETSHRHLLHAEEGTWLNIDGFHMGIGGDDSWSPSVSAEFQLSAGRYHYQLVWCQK
Assay [2] deals with DNA dC->dU-editing enzyme APOBEC-3G (Homo sapiens, UniProt Q9HC16). Briefly: Dose Response confirmation of small molecule APOBEC3G DNA Deaminase Inhibitors via a fluorescence-based single-stranded DNA deaminase assay. [Related pubchem assays (depositor defined):AID493012, AID493028]. Type of assay: functional.
DNA dC->dU-editing enzyme APOBEC-3G, sequence (Q9HC16 whole entry): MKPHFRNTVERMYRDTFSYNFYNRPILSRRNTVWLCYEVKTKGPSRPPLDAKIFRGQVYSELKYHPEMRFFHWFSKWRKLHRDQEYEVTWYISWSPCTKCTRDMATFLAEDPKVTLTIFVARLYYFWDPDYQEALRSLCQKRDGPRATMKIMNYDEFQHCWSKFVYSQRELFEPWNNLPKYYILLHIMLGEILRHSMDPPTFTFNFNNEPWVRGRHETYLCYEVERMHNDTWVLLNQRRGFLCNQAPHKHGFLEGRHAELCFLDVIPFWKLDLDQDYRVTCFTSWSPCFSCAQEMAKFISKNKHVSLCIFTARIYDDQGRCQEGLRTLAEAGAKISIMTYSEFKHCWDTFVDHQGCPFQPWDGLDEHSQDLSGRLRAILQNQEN
Assay [3] can be described thus: viability of uninfected HEp-2 cells – cell-based, HTS, cytotoxicity control for RSV inhibitor project, dose response (AID 2410). Format: functional. Conditions: human respiratory syncytial virus.
For a further assay, the target named is Cytochrome P450 2D6 (Homo sapiens, UniProt P10635). Briefly: qHTS Assay for Inhibitors and Substrates of Cytochrome P450 2D6. [Related pubchem assays: 410 ]. The settings on record: read-out: Potency. Format: ADME.
Cytochrome P450 2D6, sequence (P10635 whole entry): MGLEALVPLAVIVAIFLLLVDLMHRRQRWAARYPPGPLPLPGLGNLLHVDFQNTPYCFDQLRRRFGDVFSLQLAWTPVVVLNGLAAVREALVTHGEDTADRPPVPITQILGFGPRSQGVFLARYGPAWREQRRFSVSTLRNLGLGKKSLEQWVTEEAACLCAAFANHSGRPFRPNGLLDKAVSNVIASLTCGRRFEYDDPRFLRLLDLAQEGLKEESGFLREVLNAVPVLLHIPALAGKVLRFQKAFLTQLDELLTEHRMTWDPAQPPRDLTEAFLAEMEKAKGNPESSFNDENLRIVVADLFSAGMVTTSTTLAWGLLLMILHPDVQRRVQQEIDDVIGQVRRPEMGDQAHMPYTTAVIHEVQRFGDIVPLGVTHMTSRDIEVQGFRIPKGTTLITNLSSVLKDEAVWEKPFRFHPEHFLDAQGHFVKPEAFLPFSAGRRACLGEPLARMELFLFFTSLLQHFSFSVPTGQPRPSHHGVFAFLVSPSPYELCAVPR
Assay [4] relates to Streptococcus sp. 'group A'. Put plainly: Streptococcus pyogenes SK(-)GAS viability under kanamycin – luminescence, BacTiterGlo, confirmation, counter-screen for streptokinase expression inhibitor project, dose response (AID 1900). Format: functional, organism-based. A general note: The purpose of a counterscreen is to sort out artefacts and off-target activity.
The next assay deals with T1, Streptokinase A (Streptococcus pyogenes serotype M1, UniProt P10520).
T1 sequence (P10520 whole entry): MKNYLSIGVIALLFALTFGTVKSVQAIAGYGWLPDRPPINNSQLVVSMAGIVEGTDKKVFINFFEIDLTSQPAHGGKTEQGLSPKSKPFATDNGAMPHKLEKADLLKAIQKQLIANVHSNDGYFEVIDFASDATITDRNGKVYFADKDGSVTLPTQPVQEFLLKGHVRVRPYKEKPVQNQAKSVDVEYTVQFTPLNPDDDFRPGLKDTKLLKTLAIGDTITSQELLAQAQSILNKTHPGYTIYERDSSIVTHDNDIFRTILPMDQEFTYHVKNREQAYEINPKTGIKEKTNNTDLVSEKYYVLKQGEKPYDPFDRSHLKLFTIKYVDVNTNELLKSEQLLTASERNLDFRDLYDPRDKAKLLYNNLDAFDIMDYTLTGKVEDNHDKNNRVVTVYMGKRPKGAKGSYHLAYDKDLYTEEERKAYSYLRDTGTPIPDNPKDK
Briefly: viability-normalized secreted streptokinase activity reduction – plasminogen activation absorbance, OD405, dose response (AID 1914).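 Note: secreted streptokinase activity via plasminogen activation per viability signal from cell pellet.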 Format: functional, Streptococcus pyogenes M1 GAS.

The next assay relates to Streptococcus. Put plainly: GAS UMAA2166 growth inhibition – luminescence, BacTiterGlo, counter-screen for streptokinase expression inhibitor project, dose response (AID 1915).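 Note: potency for reduction of bacterial viability or growth.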 Format: functional, organism-based.
The target of a further assay is X-box-binding protein 1 (Homo sapiens, UniProt P17861). Format: functional, Cricetulus griseus.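 Note: confirmatory dose-response counter-screen serving a CHOP assay.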
X-box-binding protein 1, sequence (P17861 whole entry): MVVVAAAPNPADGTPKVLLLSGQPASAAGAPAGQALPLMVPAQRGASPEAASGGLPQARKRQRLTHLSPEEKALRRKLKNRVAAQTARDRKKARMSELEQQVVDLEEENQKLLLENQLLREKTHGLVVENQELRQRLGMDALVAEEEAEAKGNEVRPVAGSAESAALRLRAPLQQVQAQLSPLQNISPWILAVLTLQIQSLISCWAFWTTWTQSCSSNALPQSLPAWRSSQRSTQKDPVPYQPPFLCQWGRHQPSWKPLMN
Assay [5] addresses Melanin-concentrating hormone receptor 1 (Homo sapiens, UniProt Q99705). Briefly: Fluorescence-based counterscreen for antagonists of the G-protein coupled receptor 7 (GPR7): cell-based high throughput dose response assay to identify antagonists of the melanin-concentrating hormone receptor 1 (MCHR1). Format: functional.
The target in assay [6] is Eukaryotic translation initiation factor 4E (Mus musculus, UniProt P63073). Briefly: blockers of eIF4G binding by eIF4E – biochemical, TR-FRET, dose response (AID 855).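 Note: potency for disrupting eIF4E binding to eIF4GI seen as loss of FRET.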 Format: functional. (In TR-FRET formats the signal depends on donor and acceptor labels being close together.)
Eukaryotic translation initiation factor 4E, sequence (P63073 whole entry): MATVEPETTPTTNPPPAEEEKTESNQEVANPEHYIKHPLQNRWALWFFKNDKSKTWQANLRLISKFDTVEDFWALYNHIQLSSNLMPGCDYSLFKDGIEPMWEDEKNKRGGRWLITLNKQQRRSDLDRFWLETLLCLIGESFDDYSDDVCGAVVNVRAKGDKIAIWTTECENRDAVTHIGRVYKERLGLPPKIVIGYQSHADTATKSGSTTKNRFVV
Assay [7] concerns the target Alkaline phosphatase, placental type (Homo sapiens, UniProt P05187). Put plainly: human placental alkaline phosphatase inhibition – biochemical, luminescence, confirmation (AID 1512). Format: functional.
For assay [8], the target named is T2, Alkaline phosphatase, tissue-nonspecific isozyme (Homo sapiens, UniProt P05186).
T2 sequence (P05186 whole entry): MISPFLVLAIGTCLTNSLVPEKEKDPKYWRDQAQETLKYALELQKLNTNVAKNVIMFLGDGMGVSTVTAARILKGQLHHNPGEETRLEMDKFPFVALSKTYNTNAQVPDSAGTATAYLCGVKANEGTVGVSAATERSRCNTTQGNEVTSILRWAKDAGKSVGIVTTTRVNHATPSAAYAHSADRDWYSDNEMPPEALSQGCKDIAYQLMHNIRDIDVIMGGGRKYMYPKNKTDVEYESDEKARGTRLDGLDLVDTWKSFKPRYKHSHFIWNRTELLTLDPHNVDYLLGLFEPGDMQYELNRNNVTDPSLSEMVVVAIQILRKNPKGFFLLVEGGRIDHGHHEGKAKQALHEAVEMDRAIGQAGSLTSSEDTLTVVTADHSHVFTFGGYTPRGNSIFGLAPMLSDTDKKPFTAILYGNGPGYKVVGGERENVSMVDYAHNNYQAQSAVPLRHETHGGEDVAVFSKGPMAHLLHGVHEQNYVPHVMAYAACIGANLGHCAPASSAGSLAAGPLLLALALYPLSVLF
Briefly: potency against alkaline phosphatase TNAP – biochemical, luminescent, dose response, SAR follow-up (AID 1056).

The next assay deals with Cytochrome P450 3A4 (Homo sapiens, UniProt P08684). The settings on record: Potency.
Cytochrome P450 3A4, sequence (P08684 whole entry): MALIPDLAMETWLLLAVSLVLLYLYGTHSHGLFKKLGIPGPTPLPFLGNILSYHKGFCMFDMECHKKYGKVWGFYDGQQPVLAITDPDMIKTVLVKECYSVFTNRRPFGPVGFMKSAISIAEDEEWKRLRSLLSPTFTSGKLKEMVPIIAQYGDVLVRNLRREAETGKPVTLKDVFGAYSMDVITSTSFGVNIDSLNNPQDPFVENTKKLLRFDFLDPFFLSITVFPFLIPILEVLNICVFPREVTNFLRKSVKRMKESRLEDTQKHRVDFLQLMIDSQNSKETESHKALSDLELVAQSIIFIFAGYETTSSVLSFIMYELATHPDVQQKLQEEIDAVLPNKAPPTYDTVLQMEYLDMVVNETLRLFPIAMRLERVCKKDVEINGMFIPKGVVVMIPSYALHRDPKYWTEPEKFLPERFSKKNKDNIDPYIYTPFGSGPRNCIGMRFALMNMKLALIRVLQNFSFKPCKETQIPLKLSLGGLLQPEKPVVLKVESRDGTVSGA
The target in another assay is T3, Caspase-3 (Homo sapiens, UniProt P42574).
T3 sequence (P42574 whole entry): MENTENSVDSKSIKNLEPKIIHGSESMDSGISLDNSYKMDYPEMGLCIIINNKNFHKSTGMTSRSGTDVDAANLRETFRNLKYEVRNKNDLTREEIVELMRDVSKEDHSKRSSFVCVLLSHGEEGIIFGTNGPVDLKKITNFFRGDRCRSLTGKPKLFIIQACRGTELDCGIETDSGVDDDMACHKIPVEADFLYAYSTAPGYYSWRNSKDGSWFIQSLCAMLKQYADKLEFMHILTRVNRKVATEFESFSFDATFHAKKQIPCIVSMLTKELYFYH
Briefly: activation of caspase-3 zymogen – biochemical, absorbance, dose response (AID 489014).

The target of the next assay is Caspase-7 (Homo sapiens, UniProt P55210). Put plainly: activation of caspase-7 zymogen – biochemical, absorbance, counter-screen for procaspase-3 activator project, dose response (AID 489013).
Caspase-7, sequence (P55210 24-198 limits assumed): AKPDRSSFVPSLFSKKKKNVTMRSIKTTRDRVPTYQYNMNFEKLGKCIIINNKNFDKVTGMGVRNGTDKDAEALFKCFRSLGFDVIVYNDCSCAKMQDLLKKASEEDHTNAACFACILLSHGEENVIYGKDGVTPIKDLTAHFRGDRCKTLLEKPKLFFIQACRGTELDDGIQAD
Caspase-7, sequence (P55210 207-303 limits assumed): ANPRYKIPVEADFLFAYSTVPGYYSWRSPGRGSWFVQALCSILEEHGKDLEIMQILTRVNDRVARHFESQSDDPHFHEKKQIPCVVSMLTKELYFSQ
In assay [9] the target is T2, Alkaline phosphatase, tissue-nonspecific isozyme.
The nature of assay [10]: viability of PTEN-deleted HCT116 cells – cell-based, HCT116 PTEN knockout, dose response (AID 1047).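 Note: HCT116 colon tumor cells with PTEN knocked out; cells exposed to compound for 60 hours before readout; potency for loss of cell viability measured by luminescence.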 Type of assay: functional.
Assay [11] is described as follows: viability of HCT116 lacking mutant beta-catenin – cell-based, human colon tumor, dose response (AID 1045).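 Note: HCT116 colon tumor cells with beta catenin knocked out; cells exposed to compound for 60 hours.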 Type of assay: functional.
Assay [12] is described as follows: A Cell Based Secondary Assay To Explore Cytotoxicity of Compounds that Sensitize Mycobacterium Tuberculosis to Beta-Lactam Antibiotics. Type of assay: functional.

Active and inactive are the calls of the source.

Alkaline phosphatase, placental type, sequence (P05187 whole entry): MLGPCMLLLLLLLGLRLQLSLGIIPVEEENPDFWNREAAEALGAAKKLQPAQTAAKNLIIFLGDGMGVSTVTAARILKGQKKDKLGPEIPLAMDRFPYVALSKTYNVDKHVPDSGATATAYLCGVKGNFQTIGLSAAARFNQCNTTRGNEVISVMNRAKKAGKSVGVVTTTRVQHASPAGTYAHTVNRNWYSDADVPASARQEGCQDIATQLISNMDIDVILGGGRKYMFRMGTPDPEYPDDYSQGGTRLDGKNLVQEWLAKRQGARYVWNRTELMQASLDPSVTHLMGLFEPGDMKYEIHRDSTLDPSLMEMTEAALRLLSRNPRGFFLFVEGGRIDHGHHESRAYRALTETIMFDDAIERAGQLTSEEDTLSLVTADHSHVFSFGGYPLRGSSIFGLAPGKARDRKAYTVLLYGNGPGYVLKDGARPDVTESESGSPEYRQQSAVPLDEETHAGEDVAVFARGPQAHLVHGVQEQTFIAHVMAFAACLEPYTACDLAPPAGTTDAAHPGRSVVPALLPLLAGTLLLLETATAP
C-C chemokine receptor type 6, sequence (P51684 whole entry): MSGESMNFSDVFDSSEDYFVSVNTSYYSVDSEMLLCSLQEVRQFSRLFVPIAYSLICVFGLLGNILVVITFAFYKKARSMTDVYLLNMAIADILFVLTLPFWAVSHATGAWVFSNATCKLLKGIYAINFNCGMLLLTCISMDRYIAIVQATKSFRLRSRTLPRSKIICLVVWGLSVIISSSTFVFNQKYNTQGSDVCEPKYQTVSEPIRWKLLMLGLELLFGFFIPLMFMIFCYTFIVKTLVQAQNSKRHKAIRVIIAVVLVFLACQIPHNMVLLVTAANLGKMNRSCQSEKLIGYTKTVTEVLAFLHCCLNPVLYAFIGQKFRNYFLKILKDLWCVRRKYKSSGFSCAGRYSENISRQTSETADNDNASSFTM
Estrogen receptor, sequence (P03372 whole entry, the tested form may be a part): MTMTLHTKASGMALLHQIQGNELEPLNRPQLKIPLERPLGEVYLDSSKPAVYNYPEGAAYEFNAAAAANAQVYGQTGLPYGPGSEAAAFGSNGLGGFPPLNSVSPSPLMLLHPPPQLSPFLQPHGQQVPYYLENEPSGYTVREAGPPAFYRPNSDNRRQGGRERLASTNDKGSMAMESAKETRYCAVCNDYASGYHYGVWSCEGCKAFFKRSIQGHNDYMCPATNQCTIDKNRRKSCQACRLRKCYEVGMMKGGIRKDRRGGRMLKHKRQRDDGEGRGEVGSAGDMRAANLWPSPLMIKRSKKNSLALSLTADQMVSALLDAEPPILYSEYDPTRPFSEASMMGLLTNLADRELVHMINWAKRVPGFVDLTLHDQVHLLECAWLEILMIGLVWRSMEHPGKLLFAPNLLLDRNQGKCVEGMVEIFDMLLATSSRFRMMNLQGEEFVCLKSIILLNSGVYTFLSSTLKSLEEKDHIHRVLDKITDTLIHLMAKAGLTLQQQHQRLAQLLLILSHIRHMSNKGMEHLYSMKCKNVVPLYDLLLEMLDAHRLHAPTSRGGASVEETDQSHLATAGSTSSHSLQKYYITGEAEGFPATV

Regarding `CCSc1nc2c(cnn2-c2ccc(C)cc2)c(=O)[nH]1`, the 50% effective concentration (EC50) at Estrogen receptor is 14.4 µM (active).
For `Cc1ccc(C)c2sc(NC(=O)c3nc4ccccc4s3)nc12`, the 50% inhibitory concentration (IC50) in assay [1] was 0.869 µM (active); at Beta-galactosidase, > 66.6 µM (inactive).
As to `CCN(CC)c1ccc(NC(=O)c2ccccc2)cc1S(=O)(=O)Nc1ccccc1OC`, the IC50 in assay [2] is 30 µM (active).
Regarding `Cc1nc2ccccc2nc1Nc1cccc(Cl)c1`, the cytotoxic concentration (CC50) in assay [3] was 24.1 µM (active). Besides, the half-inhibitory concentration (IC50) in “cells” is 11.7 µM (active).
`COc1ccc(NC(=O)/C=C\c2ccc(Cl)cc2)cc1`: at Cytochrome P450 2D6, the AC50 is 25.1 µM (inconclusive).
For `Cc1ccc(NC(=O)c2ccc(C#CC3(O)CCCCC3)cc2)cc1C`, the concentration giving a half-maximal response (EC50) in [4] was > 150 µM (not active); on Streptokinase A, 7.36 µM (inconclusive); in the assay on Streptococcus, > 150 µM (not active). The “Absolute IC50 (XBP1)” value at X-box-binding protein 1 came out at 10 µM.
Take `C#CC(CO)N(CCN(Cc1ccccc1)C(C#C)CO)Cc1ccccc1` (stereo not drawn): the IC50 in assay [5] is on record as 15 µM (not active).
As to `COc1ccc(CCNC(=O)CCNC(=O)c2ccc(Br)cc2)cc1OC`, the IC50 in assay [6] is > 64 µM (inactive).
Turning to `Cc1ccc(-c2nnc(SCC(=O)c3ccc(O)c(O)c3)n2-c2ccc(C)cc2)cc1`, the 50% inhibitory concentration (IC50) in assay [7] is 9.54 µM (active); in assay [8] it was > 100 µM (inactive).
On to `O=c1cc(-c2cccc(O)c2O)oc2ccccc12`, for which the AC50 was 31.6 µM (inconclusive) at Cytochrome P450 2D6 and 20 µM (inconclusive) on Cytochrome P450 3A4.
Take `CCN(CC)c1ccc(/C=N/NC(=S)NCc2ccco2)cc1`: the EC50 on Caspase-3 and on Caspase-7 was > 85.3 µM (inactive) each time.
For the compound `Cn1c(=O)c2c(nc(N/N=C/c3cccs3)n2Cc2ccccc2)n(C)c1=O`, the EC50 in assay [9] is > 100 µM (not active); in assay [10] it was 56.2 µM (active); in assay [11] it was 84.2 µM (active).
Take `O=C1N=C(N/N=C/c2ccc3ncccc3c2)SC1Cc1ccc(SC(F)F)cc1` (stereo not drawn): the half-maximal cytotoxic concentration (CC50) in assay [12] was > 40 µM (active).

A word on the EC50: it is the concentration that produces a half-maximal response. By IC50 is commonly meant the concentration that gives 50% inhibition. The CC50 is the concentration that lowers cell viability or growth by half.

Source of the values: ChEMBL document CHEMBL1201862, “PubChem BioAssay data set” (2004).
